In one experiment the target is T1, intracellular CK2α (Homo sapiens, UniProt P19784).
T1 construct: host or cells: HCT116 (ATCC CCL-247)
Description: Cell-based NanoBRET assay for inhibitor binding to intracellular CK2α. To be noted: HCT116 cells transiently transfected with CSNK2A2-NanoLuc fusion vector; Tracer K-5; 2 h; read-out: Assay 3: NanoBRET ™ assay for binding to intracellular CK2α. A digest of the protocol:
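Apparent affinity came from BRET ratio (acceptor/donor ×1,000), with donor read at 450 nm and acceptor at 610 or 630 nm. Compounds competed off a tracer added at fixed concentration to cells carrying a NanoLuc-CK2α fusion.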
(BRET reads energy transfer from a luciferase to a nearby fluorophore.)

The target of a further experiment is T2, CK2α (Homo sapiens, UniProt P68400).
T2 construct: CK2α (residues 2-329) was produced in Escherichia coli BL21 (DE3) for kinase activity screening; His6 (N, cleaved yes); made in house; host or cells: Escherichia coli BL21 (DE3)
T2 sequence (P68400 2-329): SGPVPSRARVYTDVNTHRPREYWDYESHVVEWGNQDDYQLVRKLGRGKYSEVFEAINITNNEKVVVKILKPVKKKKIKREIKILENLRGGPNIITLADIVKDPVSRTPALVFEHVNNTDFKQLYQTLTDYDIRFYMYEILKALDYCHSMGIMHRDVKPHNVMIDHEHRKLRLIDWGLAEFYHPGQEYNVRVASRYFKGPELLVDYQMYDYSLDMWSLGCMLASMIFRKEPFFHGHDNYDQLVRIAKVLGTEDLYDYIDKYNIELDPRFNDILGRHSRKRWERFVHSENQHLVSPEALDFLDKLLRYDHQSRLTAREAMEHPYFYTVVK
Kind of experiment: Biochemical assay for inhibitors of CK2α kinase activity (ADP-Glo). The conditions noted are these: 0.2 nM CK2α, 50 μM peptide substrate, 15 μM ATP, read-out: Assay 1: CK2α Enzyme IC50. (ADP-Glo first removes unused ATP, then detects ADP through luciferase.)

Another experiment concerns the target T3, CLK2 (Homo sapiens, UniProt P49760).
T3 construct: purchased Carna Biosciences 04-127
Kind of experiment: Biochemical assay for inhibitors of CLK2 kinase activity (ADP-Glo). The conditions noted are these: 20 nM CLK2, 50 μM peptide substrate, 100 μM ATP, read-out: Assay 2: CLK2 Enzyme IC50.

T1 sequence (P19784 whole entry): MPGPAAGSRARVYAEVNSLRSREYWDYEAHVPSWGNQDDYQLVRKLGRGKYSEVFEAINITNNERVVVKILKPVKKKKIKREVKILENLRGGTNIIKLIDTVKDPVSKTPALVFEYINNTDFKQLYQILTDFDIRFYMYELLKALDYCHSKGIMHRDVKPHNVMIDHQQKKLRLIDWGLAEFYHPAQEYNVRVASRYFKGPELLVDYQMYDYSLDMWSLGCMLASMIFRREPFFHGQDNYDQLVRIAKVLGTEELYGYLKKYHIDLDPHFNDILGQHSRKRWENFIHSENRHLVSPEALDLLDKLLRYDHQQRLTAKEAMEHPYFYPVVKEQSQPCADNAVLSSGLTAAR
T3 sequence (P49760 whole entry): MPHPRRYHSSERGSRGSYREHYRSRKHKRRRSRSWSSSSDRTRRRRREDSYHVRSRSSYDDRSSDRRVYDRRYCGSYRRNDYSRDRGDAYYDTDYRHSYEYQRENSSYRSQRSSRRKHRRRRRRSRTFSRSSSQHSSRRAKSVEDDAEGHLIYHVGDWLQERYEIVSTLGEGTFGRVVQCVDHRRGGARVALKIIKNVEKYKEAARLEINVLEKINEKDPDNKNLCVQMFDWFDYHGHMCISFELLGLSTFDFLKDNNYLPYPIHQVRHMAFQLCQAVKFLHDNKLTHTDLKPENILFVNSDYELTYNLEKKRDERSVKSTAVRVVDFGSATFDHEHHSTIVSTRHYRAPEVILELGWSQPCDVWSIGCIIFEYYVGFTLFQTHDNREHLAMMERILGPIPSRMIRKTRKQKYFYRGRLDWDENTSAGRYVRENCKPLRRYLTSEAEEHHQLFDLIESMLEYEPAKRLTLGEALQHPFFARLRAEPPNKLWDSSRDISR

For `O=C(O)CCc1cc(NCCOCCCCNCc2cc(F)c(OC(F)(F)F)c(F)c2)c2cn[nH]c2c1` [Example 201, 3-(4-((2-(4-((3,5-difluoro-4-(trifluoromethoxy)benzyl)amino)butoxy)ethyl)amino)-1H-indazol-6-yl)propanoic acid], the IC50 was found to be 142 nM at intracellular CK2α, 0.87 nM on CK2α and 7830 nM at CLK2.

On to `OCCOc1cc(CNCCCCOCCNc2cccc3[nH]ncc23)cc(OC(F)(F)F)c1` [Example 202, 2-(3-(((4-(2-((1H-indazol-4-yl)amino)ethoxy)butyl)amino)methyl)-5-(trifluoromethoxy)phenoxy)ethan-1-ol], for which the results for the IC50 on intracellular CK2α, at CK2α and at CLK2 were over 3000 nM, 216 nM and 23300 nM, respectively.

As for `OCc1cc(CNC2CC(COCCNc3cc(-c4cnns4)cc4[nH]ncc34)C2)cc(OC(F)(F)F)c1` (stereo not drawn) [Example 203, (3-(((3-((2-((6-(1,2,3-thiadiazol-5-yl)-1H-indazol-4-yl)amino)ethoxy)methyl)cyclobutyl)amino)methyl)-5-(trifluoromethoxy)phenyl)methanol], the IC50 was determined as 546 nM at intracellular CK2α, 36.1 nM at CK2α and 307 nM at CLK2.

In the case of `N#CCc1cc(NCCOCCCCNCc2cc(CO)cc(OC(F)(F)F)c2)c2cn[nH]c2c1` [Example 204, 2-(4-((2-(4-((3-(hydroxymethyl)-5-(trifluoromethoxy)benzyl)amino)butoxy)ethyl)amino)-1H-indazol-6-yl)acetonitrile], the IC50 on intracellular CK2α was 405 nM; on CK2α it was 46.2 nM; at CLK2 it was 3440 nM.

In the case of `OCCOc1cc(CNC2CC(COCCNc3cc(-c4cnns4)cc4[nH]ncc34)C2)cc(OC(F)(F)F)c1` (stereo not drawn) [Example 205], the IC50 at intracellular CK2α is 467 nM; on CK2α, 12.7 nM; at CLK2, 214 nM.

Take `CC(C)(C#N)c1cc(NCCOCCCCNCc2cc(CO)cc(OC(F)(F)F)c2)c2cn[nH]c2c1` [Example 206, 2-(4-((2-(4-((3-(hydroxymethyl)-5-(trifluoromethoxy)benzyl)amino)butoxy)ethyl)amino)-1H-indazol-6-yl)-2-methylpropanenitrile]: the IC50 at intracellular CK2α is 595 nM; on CK2α, 63.9 nM; on CLK2 it was 2260 nM.

Consider `C[C@@H](CCCOCCNc1cc(-c2cnns2)cc2[nH]ncc12)NCc1cc(CO)cc(OC(F)(F)F)c1` [Example 207, (S)-(3-(((5-(2-((6-(1,2,3-thiadiazol-5-yl)-1H-indazol-4-yl)amino)ethoxy)pentan-2-yl)amino)methyl)-5-(trifluoromethoxy)phenyl)methanol], for which the IC50 on intracellular CK2α came to 8.66 nM; at CK2α it was 1.71 nM; on CLK2, 240 nM.

For `C[C@H](COCCCCNCc1cc(CO)cc(OC(F)(F)F)c1)Nc1cc(-c2cnns2)cc2[nH]ncc12` [Example 208, (R)-(3-(((4-(2-((6-(1,2,3-thiadiazol-5-yl)-1H-indazol-4-yl)amino)propoxy)butyl)amino)methyl)-5-(trifluoromethoxy)phe-nyl)methanol], the figures for the IC50 at intracellular CK2α, on CK2α and on CLK2 were 69.9 nM, 8.92 nM and 69.7 nM, respectively.

Turning to “N-(2-(4-((3-chloro-4-(trifluoromethoxy)benzyl)amino)butoxy)ethyl)-6-(azetidine-4-yl)-1H-benzo[d][1,2,3]triazol-4-amine [Example 127]”, the IC50 amounted to 306 nM at intracellular CK2α, 5.06 nM at CK2α and 1380 nM on CLK2.

These data come from patent US20260085062A1, “NOVEL COMPOUNDS AS CK2 INHIBITORS” (Cambridge Enterprise Limited, priority 2022, published 2026).
